The values that follow come from ChEMBL document CHEMBL3621155, “The status of the lysophosphatidic acid receptor type 1 (LPA1R)” (Medchemcomm, 2015).

Assay [1] addresses T1, Lysophosphatidic acid receptor 3 (Homo sapiens, UniProt Q9UBY5).
T1 sequence (Q9UBY5 whole entry): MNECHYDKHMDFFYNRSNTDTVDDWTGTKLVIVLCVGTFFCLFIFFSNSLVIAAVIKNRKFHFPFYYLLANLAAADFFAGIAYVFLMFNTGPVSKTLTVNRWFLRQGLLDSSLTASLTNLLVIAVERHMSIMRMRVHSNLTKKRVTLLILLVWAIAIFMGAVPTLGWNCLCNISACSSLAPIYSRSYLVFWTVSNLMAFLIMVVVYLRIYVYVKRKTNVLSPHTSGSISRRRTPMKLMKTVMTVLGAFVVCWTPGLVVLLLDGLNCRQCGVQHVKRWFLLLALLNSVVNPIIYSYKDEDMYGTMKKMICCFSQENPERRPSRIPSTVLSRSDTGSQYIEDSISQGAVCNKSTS
The assay can be described thus: Agonist activity at human LPA3 receptor transfected in HEK293T cells after 30 mins by GTP[gamma-35S] binding assay. The class given is cell-based, HEK-293T. (Binding of GTPγS marks nucleotide exchange on a G protein.)

The target of assay [2] is T1, Lysophosphatidic acid receptor 3. Description: Antagonist activity at human LPA3 receptor expressed in CHO cells assessed as inhibition of LPA-induced calcium mobilization preincubated for 30 mins followed by LPA induction by FLIPR Calcium 4 dye-based fluorometric analysis. The class given is functional, cell-based. Background: A change in cytosolic calcium serves as a functional read-out for many receptors and channels.

Assay [3] addresses Lysophosphatidic acid receptor 5 (Homo sapiens, UniProt Q9H1C0). Description: Antagonist activity at human LPA5 receptor expressed in rat B103 cells assessed as inhibition of LPA-induced calcium mobilization preincubated for 30 mins followed by LPA induction by FLIPR Calcium 4 dye-based fluorometric analysis. It counts as functional, cell-based.
In assay [4] the target is T2, Lysophosphatidic acid receptor 1 (Homo sapiens, UniProt Q92633). The assay can be described thus: Antagonist activity at human LPA1 receptor expressed in CHO cells assessed as inhibition of LPA-induced calcium mobilization preincubated for 30 mins followed by LPA induction by FLIPR Calcium 4 dye-based fluorometric analysis. It counts as functional, cell-based.
T2 sequence (Q92633 whole entry): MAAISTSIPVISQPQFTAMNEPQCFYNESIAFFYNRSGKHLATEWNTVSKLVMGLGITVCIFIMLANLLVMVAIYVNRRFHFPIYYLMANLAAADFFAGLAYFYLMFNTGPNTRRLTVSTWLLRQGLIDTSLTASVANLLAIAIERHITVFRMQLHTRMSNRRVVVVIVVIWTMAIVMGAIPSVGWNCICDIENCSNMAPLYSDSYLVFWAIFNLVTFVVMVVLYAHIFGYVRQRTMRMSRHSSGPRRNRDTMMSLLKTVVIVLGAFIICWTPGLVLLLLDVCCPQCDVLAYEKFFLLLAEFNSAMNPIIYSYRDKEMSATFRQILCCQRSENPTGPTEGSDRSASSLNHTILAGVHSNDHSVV
In assay [5] the target is T3, Lysophosphatidic acid receptor 2 (Homo sapiens, UniProt Q9HBW0). The assay can be described thus: Antagonist activity at human LPA2 receptor expressed in rat B103 cells assessed as inhibition of LPA-induced calcium mobilization preincubated for 30 mins followed by LPA induction by FLIPR Calcium 4 dye-based fluorometric analysis. The class given is functional, cell-based.
T3 sequence (Q9HBW0 whole entry): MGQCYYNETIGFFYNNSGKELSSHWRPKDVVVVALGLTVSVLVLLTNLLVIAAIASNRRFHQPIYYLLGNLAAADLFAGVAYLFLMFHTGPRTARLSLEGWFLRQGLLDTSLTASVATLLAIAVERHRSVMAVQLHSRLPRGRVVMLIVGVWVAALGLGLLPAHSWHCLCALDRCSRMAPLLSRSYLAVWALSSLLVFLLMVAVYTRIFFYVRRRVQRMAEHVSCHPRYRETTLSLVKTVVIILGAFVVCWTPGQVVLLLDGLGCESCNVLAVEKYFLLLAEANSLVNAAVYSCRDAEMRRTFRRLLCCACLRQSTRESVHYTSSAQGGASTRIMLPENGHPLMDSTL

Assay [6] has as its target T4, Lysophosphatidic acid receptor 4 (Homo sapiens, UniProt Q99677). Description: Antagonist activity at human LPA4 receptor expressed in rat B103 cells assessed as inhibition of LPA-induced calcium mobilization preincubated for 30 mins followed by LPA induction by FLIPR Calcium 4 dye-based fluorometric analysis. It counts as functional, cell-based.
Assay [7] concerns the target Lysophosphatidic acid receptor 1 (Mus musculus, UniProt P61793). The assay can be described thus: Antagonist activity at mouse LPA1 receptor transfected in HEK293T cells. It counts as cell-based, HEK-293T.
Assay [8] deals with T1, Lysophosphatidic acid receptor 3. The assay can be described thus: Antagonist activity at human LPA3 receptor transfected in HEK293T cells. The class given is cell-based, HEK-293T.
The target of assay [9] is T2, Lysophosphatidic acid receptor 1. The assay can be described thus: Agonist activity at human LPA1 receptor transfected in HEK293T cells after 30 mins by GTP[gamma-35S] binding assay. The class given is cell-based, HEK-293T.
For assay [10], the target named is T3, Lysophosphatidic acid receptor 2. Description: Agonist activity at human LPA2 receptor transfected in HEK293T cells after 30 mins by GTP[gamma-35S] binding assay. The class given is cell-based, HEK-293T.
Assay [11] deals with T2, Lysophosphatidic acid receptor 1. The assay can be described thus: Agonist activity at human LPA1 receptor transfected in RH7777 cells assessed as mobilization of Ca2+ by fluorometric analysis. The class given is functional, cell-based.
Assay [12] addresses T1, Lysophosphatidic acid receptor 3. The assay can be described thus: Agonist activity at human LPA3 receptor transfected in RH7777 cells assessed as mobilization of Ca2+ by fluorometric analysis. The class given is functional, cell-based.
For assay [13], the target named is T2, Lysophosphatidic acid receptor 1. Description: Antagonist activity at human LPA1 receptor expressed in RH7777 cells assessed as inhibition of LPA-induced calcium mobilization by Fura-2 AM probe-based fluorometric analysis. It counts as functional, cell-based.
The target of assay [14] is T1, Lysophosphatidic acid receptor 3. Description: Antagonist activity at human LPA3 receptor expressed in RH7777 cells assessed as inhibition of LPA-induced calcium mobilization by Fura-2 AM probe-based fluorometric analysis. It counts as functional, cell-based.
The target of assay [15] is T4, Lysophosphatidic acid receptor 4. Description: Antagonist activity at human LPA4 receptor expressed in CHO cells assessed as inhibition of LPA-induced calcium mobilization by Fura-2 AM probe-based fluorometric analysis. The class given is functional, cell-based.
Assay [16] concerns the target T3, Lysophosphatidic acid receptor 2. Description: Antagonist activity at human LPA2 receptor expressed in RH7777 cells assessed as inhibition of LPA-induced calcium mobilization by Fura-2 AM probe-based fluorometric analysis. The class given is functional, cell-based.
Assay [17] shares this target. The assay can be described thus: Antagonist activity at human LPA2 receptor expressed in CHO cells assessed as inhibition of LPA-induced calcium mobilization preincubated for 30 mins followed by LPA induction by FLIPR Calcium 4 dye-based fluorometric analysis. The class given is functional, cell-based.
For assay [18], the target named is T2, Lysophosphatidic acid receptor 1. Description: Antagonist activity at human LPA1 receptor expressed in CHO cells assessed as inhibition of LPA-induced calcium mobilization preincubated with protein followed by LPA induction measured for 2 mins by Fluo-4 dye-based FLIPR assay. The class given is functional, cell-based.
In assay [19] the target is Lysophosphatidic acid receptor 1/lysophosphatidic acid receptor 3 (Rattus norvegicus, UniProt Q8K5E0+P61794). Description: Antagonist activity at LPA1/LPA3 receptor (unknown origin). The class given is protein assay, Homo sapiens.
A short description of assay [20]: Displacement of [32P]diazirine-LPA from LPA receptor in mouse N1E-115 cells preincubated for 1 hr in dark followed by UV irradiation for 5 mins by scintillation counting analysis. It counts as cell-based.

T4 sequence (Q99677 whole entry): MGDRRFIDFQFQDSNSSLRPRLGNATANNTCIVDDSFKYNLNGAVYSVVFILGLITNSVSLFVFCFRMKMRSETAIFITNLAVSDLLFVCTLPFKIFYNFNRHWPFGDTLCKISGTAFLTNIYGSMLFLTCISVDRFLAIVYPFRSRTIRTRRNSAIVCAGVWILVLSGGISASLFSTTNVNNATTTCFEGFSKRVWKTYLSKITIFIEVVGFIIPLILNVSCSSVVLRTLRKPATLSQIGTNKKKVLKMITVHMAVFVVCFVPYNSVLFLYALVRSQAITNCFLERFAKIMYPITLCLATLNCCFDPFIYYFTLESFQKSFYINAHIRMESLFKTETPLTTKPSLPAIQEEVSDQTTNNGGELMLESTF
Sequence of Lysophosphatidic acid receptor 5 (Q9H1C0 whole entry): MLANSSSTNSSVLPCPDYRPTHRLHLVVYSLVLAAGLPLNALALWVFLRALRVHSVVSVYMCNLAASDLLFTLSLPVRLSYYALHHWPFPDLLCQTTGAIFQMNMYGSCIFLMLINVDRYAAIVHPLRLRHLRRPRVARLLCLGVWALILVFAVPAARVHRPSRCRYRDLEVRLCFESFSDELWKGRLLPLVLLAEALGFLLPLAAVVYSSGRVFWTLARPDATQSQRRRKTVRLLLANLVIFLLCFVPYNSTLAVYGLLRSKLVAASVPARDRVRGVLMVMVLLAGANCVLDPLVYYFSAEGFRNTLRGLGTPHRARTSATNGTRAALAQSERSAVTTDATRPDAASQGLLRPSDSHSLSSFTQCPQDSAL
Sequence of Lysophosphatidic acid receptor 1 (Mus musculus, UniProt P61793) (P61793 whole entry): as the sequence (Q92633 whole entry) above, with I4A, I8S, P22Q, H40Y, I61V, E193D, N194H, I269V, S331N, T335N counted along it

Broadly, the EC50 is the concentration that produces a half-maximal response. In the case of `CCCCCCCC/C=C\CCCCCCCC(=O)OC[C@@H](COP(O)(O)=S)OC`, in assay [1], a half-maximal response (EC50) required 276 nM.
Usually IC50 stands for the concentration needed to halve the response being measured. For the compound `Cc1noc(-c2ccc(-c3ccc(CC(=O)O)cc3)cc2)c1NC(=O)O[C@H](C)c1ccccc1`, the IC50 in assay [2] was greater than 8000 nM; in [3], greater than 8000 nM; in assay [4], 25 nM; in assay [5] it was greater than 8000 nM; in [6] it was greater than 8000 nM.
In the case of `CCCCCCCC/C=C\CCCCCCCC(=O)N[C@H](COP(=O)(O)O)Cc1ccc(OCc2ccccc2)cc1`, the half-maximal inhibitory concentration (IC50) was 5210 nM in assay [7] and 6450 nM in [8].
On to `CCCCCCCC/C=C\CCCCCCCC(=O)NCCOP(O)(O)=S`, for which the EC50 in assay [9] was 40 nM; in [10], 108 nM.
In turn, `CCCCCCCC/C=C\CCCCCCCC(=O)NCCSP(=O)(O)O` came in with an EC50 in assay [9] of 318 nM.
Turning to `CCCCCCCC/C=C\CCCCCCCCOC[C@H](COP(O)(O)=S)OC`, the half-maximal effective concentration (EC50) in assay [11] was found to be 790 nM; in [12] it was 62 nM.
`CCCCCCCC/C=C\CCCCCCCCOC[C@@H](COP(O)(O)=S)OC`: the EC50 in [11] came out at 571 nM; in [12] it was 80 nM.
For `CCCCCC/C=C\CCCCCCCC(=O)OC[C@@H](O)CC(Br)P(=O)(O)O` (some centres not stated), the IC50 came to 1500 nM in assay [13], 1160 nM in assay [14], 266 nM in [15] and 1420 nM in [16].
Regarding `Cc1noc(-c2ccc(-c3ccc(CC(=O)O)cc3)cc2)c1NC(=O)O[C@H](C)c1ccccc1Cl`, the IC50 is 1600 nM in assay [2], 1700 nM in [17] and 17 nM in [4].
Take `Cc1nsc(-c2ccc(-c3ccc(CC(=O)O)cc3)cc2)c1NC(=O)O[C@H](C)c1ccccc1Cl`: the IC50 was greater than 500 nM in assay [2] and less than 50 nM in assay [4].
Regarding `COc1ccc([C@@H](O)C(=O)N(CCCc2ccccc2)Cc2nc(C(=O)NS(C)(=O)=O)c(C)s2)c(F)c1`, the IC50 in assay [18] is 6.6 nM.
`COc1ccc(C(=O)NC2(C(=O)O)Cc3ccccc3C2)cc1OCCc1cccc(C)c1` [FIPAXALPARANT]: the IC50 in assay [19] is on record as less than 100 nM.
Turning to `CCCCCCCC/C=C\CCCCCCCC(=O)OC[C@@H](O)COP(=O)(O)O` [LYSOPHOSPHATIDIC ACID], the 50% inhibitory concentration (IC50) in [20] was found to be 10 nM.
